The values below come from ChEMBL document CHEMBL4673352, “Discovery of AZD4573, a Potent and Selective Inhibitor of CDK9 That Enables Short Duration of Target Engagement for the Treatment of Hematological Malignancies” (J Med Chem, 2020).

Data set [1] is described as follows: Clearance in Beagle dog plasma at 5.2 umol/kg, iv administered over 0.25 hrs formulated as solution in 5% DMSO. In kind it is ADME, organism-based, Canis lupus familiaris. Conditions: dose 5.2 µmol/kg.
Data set [2] can be described thus: Drug metabolism in human hepatocytes assessed as 4-(4-(2-((1S,3R)-3-acetamidocyclohexanecarboxamido)-5-chloropyridin-4-yl)-1H-pyrazol-5-yl)butanoic acid metabolite formation. In kind it is ADME, cell-based, Hepatocyte.
Data set [3] is described as follows: Half-life in Beagle dog at 5.2 umol/kg, iv administered over 0.25 hrs formulated as solution in 5% DMSO. Format: ADME, organism-based, Canis lupus familiaris. To be noted: in vivo, dose 5.2 µmol/kg.
Data set [4] in a line: Volume of distribution at steady state in Beagle dog at 5.2 umol/kg, iv administered as 0.25 hrs formulated as solution in 5% DMSO. In kind it is ADME, organism-based, Canis lupus familiaris. To be noted: in vivo, dose 5.2 µmol/kg, read-out: Vdss.
Data set [5] is filed under the species Homo sapiens. The data set is described as follows: Selectivity ratio of IC50 for CDK5 (unknown origin) in presence of 5 mM ATP to IC50 for Inhibition of recombinant full length human N-terminal GST-fused CDK9 (1 to 372 residues)/His-tagged CyclinT1 (1 to 726 residues) expressed in baculovirus infected insect cells.
Data set [6] is described as follows: Drug metabolism in human hepatocytes assessed as (1S,3R)-3-acetamido-N-(5-fluoro-4-(6-hydroxy-5,5-dimethyl-5,6-dihydro-4H-pyrrolo[1,2-b]pyrazol-3-yl)pyridin-2-yl)cyclohexanecarboxamide metabolite formation. In kind it is ADME, cell-based, Hepatocyte.
Data set [7] addresses Cyclin-dependent kinase 7/ cyclin H (Homo sapiens) (UniProt P51946+P50613). The data set can be described thus: Inhibition of human recombinant full-length CDK7/CyclinH using peptide as substrate incubated for 40 mins in presence of [gamma-33P]ATP at 1 uM by scintillation counting method relative to control. Format: protein-complex assay.
Data set [8] concerns the target T1, Cyclin-dependent kinase 9 (Homo sapiens, UniProt P50750). The data set can be described thus: Inhibition of CDK9 in human MCF7 cells assessed as reduction in RNA Polymerase 2 CTD phosphorylation at Ser2 residues measured after 6 hrs by immunofluorescence assay. Format: cell-based.
A short description of data set [9]: Drug metabolism in human hepatocytes assessed as 3-(4-(2-((1S,3R)-3-acetamidocyclohexanecarboxamido)-5-fluoropyridin-4-yl)-1H-pyrazol-5-yl)-2,2-dimethylpropanoic acid metabolite formation. Format: ADME, cell-based, Hepatocyte.
The target of data set [10] is T1, Cyclin-dependent kinase 9. The data set can be described thus: Inhibition of CDK9 in human MV4-11 cells assessed as induction of caspase-3/7 activation measured after 6 hrs followed by Caspase-glo reagent based assay. In kind it is cell-based.
Data set [11] can be described thus: Drug metabolism in human hepatocytes assessed as (1S,3R)-3-acetamido-N-(5-fluoro-4-(5-(3-hydroxy-2,2-dimethylpropyl)-1H-pyrazol-4-yl)pyridin-2-yl)cyclohexanecarboxamide metabolite formation. In kind it is ADME, cell-based, Hepatocyte.
The species named for data set [12] is Homo sapiens. The data set is described as follows: Selectivity ratio of IC50 for recombinant full length human CDK2/CyclinE expressed in insect cells to IC50 for Inhibition of recombinant full length human N-terminal GST-fused CDK9 (1 to 372 residues)/His-tagged CyclinT1 (1 to 726 residues) expressed in baculovirus infected insect cells.
The nature of data set [13]: Clearance in mouse plasma at […], iv. Format: ADME. To be noted: dose 2.4 µmol/kg.
For data set [14], the species on record is Homo sapiens. The data set is described as follows: Selectivity ratio of IC50 for recombinant full length human His-tagged CDK1/CyclinB expressed in baculovirus infected insect cells to IC50 for Inhibition of recombinant full length human N-terminal GST-fused CDK9 (1 to 372 residues)/His-tagged CyclinT1 (1 to 726 residues) expressed in baculovirus infected insect cells.

A short description of data set [15]: Drug metabolism in human liver microsomes assessed as (1S,3R)-3-acetamido-N-(5-fluoro-4-(5-(3-hydroxy-2,2-dimethylpropyl)-1H-pyrazol-4-yl)pyridin-2-yl)cyclohexanecarboxamide formation at 10 uM measured after 1 hr in presence of NADPH by LC-UV-MS analysis. Format: ADME, Microsome. (In general: Microsomes from liver hold many membrane-bound enzymes, among them those of drug oxidation.)

The target of data set [16] is T1, Cyclin-dependent kinase 9.
Data set [17] can be described thus: Drug metabolism in human liver microsome assessed as (1S,3R)-3-acetamido-N-(5-chloro-4-(6-hydroxy-5,5-dimethyl-5,6-dihydro-4H-pyrrolo[1,2-b]pyrazol-3-yl)pyridin-2-yl)cyclohexanecarboxamide formation at 10 uM measured after 1 hr in presence of NADPH by LC-UV-MS analysis. Conditions: microsomes. In kind it is ADME.
Data set [18] deals with Glycogen synthase kinase-3 beta (Homo sapiens, UniProt P49841). The data set is described as follows: Inhibition of GSK3beta (unknown origin) in presence of 5 mM ATP.
For the next data set, the system named is NOMO-1. The data set is described as follows: Antitumor activity against human NOMO1 cells xenografted in CB17 SCID mouse assessed as tumor regression at 15 mg/kg, ip BID administered at 2 hrs dosing interval with 2 days on and 5 days off dosing schedule measured 12 days post initial dose. In kind it is functional. Conditions: time 12 day. (In xenograft studies the graft and the host belong to different species.)

A short description of data set [19]: Drug metabolism in human hepatocytes assessed 3-(4-(2-((1S,3R)-3-acetamidocyclohexanecarboxamido)-5-chloropyridin-4-yl)-1H-pyrazol-5-yl)-2,2-dimethylpropanoic acid metabolite formation. Format: ADME, cell-based, Hepatocyte.
Data set [20] deals with Cyclin-dependent kinase 9 (Mus musculus) (UniProt Q99J95). The data set can be described thus: In-vivo inhibition of CDK9 in CB17 SCID mouse xenografted with human NOMO1 cells assessed as reduction in RNA Polymerase 2 CTD phosphorylation at Ser2 residues administered intraperitoneally twice at 2 hrs dosing interval with 2 days on and 5 days off dosing schedule by Western blot analysis. In kind it is functional. To be noted: dose 5-15 mg/kg.

In data set [21] the test system is MV4-11. The data set can be described thus: Antitumor activity against human MV4-11 cells xenografted in CB17 SCID mouse assessed as tumor regression at 15 mg/kg, ip BID administered at 2 hrs dosing interval with 2 days on and 5 days off dosing schedule observed for 125 days. Format: functional. Conditions: time 125 day.
A short description of data set [22]: Half-life in cynomolgus monkey at 0.46 umol/kg, iv administered over 0.25 hrs formulated as solution in DMA/PEG400/Tween80. Format: ADME, organism-based, Macaca fascicularis. To be noted: in vivo, dose 0.46 µmol/kg.
The test system of data set [23] is MV4-11. The data set can be described thus: Antitumor activity against human MV4-11 cells xenografted in ip dosed CB17 SCID mouse assessed as cell death administered twice daily at 2 hrs dose interval with 2 days on and 5 days off dosing schedule. Format: functional, organism-based.
Data set [24] is described as follows: Half-life in Beagle dog at 0.23 umol/kg, iv administered over 0.25 hrs formulated as solution in 10% DMSO/90% water. Format: ADME, organism-based, Canis lupus familiaris. To be noted: in vivo, dose 0.23 µmol/kg.
Data set [25] is described as follows: Drug metabolism in human hepatocytes assessed as (1S,3R)-3-acetamido-N-(5-chloro-4-(6-hydroxy-5,5-dimethyl-5,6-dihydro-4H-pyrrolo[1,2-b]pyrazol-3-yl)pyridin-2-yl)cyclohexanecarboxamide metabolite formation. Format: ADME, cell-based, Hepatocyte.
Data set [26] addresses Casein kinase I isoform gamma-1 (Homo sapiens, UniProt Q9HCP0). The data set is described as follows: Inhibition of CK1gamma1 (unknown origin) in presence of 5 mM ATP.
In data set [27] the target is Mitogen-activated protein kinase 8 (Homo sapiens, UniProt P45983). The data set can be described thus: Inhibition of human recombinant His-tagged JNK1 expressed in baculovirus expression system at 0.1 uM incubated for 60 mins by TR-FRET based LanthaScreen Eu kinase binding assay relative to control.
Data set [28] has as its target Glycogen synthase kinase-3 alpha (Homo sapiens, UniProt P49840). The data set can be described thus: Inhibition of kinase tracer 236 binding to N-terminal GST-tagged human full length GSK3alpha expressed in baculovirus expression system by Lanthascreen Eu kinase binding assay. To be noted: dose 0.1 µM, time 60.0 min. (In general: Time-resolved FRET reads energy transfer from a long-lived donor to a nearby acceptor.)

A short description of data set [29]: Intrinsic clearance in monkey cryopreserved hepatocytes assessed per million cells […]. Format: ADME, cell-based, Macaca mulatta, Hepatocyte. Conditions: rhesus monkey, read-out: CLH.

Where only a bound is given, the exact number is not on record here.

T1 sequence (P50750 whole entry): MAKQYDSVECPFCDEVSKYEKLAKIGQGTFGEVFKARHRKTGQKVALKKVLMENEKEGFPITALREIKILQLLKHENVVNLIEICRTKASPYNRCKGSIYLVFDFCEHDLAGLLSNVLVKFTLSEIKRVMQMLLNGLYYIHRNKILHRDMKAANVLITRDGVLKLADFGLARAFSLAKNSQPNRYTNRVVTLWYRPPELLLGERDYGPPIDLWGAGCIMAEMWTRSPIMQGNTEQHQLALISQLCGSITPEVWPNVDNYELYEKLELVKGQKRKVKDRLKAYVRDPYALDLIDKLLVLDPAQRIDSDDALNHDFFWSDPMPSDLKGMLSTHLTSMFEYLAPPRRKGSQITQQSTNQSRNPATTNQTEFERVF
Chain of Glycogen synthase kinase-3 alpha (P49840 2-483 limits assumed): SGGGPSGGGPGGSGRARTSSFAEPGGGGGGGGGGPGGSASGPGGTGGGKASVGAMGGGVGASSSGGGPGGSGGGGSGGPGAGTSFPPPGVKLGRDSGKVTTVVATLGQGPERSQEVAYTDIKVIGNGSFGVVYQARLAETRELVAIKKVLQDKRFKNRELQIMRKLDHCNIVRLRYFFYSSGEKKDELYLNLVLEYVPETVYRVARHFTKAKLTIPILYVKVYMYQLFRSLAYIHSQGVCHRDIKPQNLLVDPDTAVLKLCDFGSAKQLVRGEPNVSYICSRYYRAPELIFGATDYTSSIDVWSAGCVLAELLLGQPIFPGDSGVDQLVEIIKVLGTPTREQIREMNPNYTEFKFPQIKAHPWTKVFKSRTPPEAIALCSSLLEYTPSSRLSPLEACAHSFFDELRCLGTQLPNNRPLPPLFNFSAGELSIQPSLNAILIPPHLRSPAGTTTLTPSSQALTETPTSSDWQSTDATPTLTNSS
Chain of Cyclin-dependent kinase 9 (Mus musculus) (Q99J95 whole entry): as the sequence (P50750 whole entry) above, with S17T, R37K, K40Q, N258K, Y262F counted along it
Chain of Mitogen-activated protein kinase 8 (P45983 whole entry): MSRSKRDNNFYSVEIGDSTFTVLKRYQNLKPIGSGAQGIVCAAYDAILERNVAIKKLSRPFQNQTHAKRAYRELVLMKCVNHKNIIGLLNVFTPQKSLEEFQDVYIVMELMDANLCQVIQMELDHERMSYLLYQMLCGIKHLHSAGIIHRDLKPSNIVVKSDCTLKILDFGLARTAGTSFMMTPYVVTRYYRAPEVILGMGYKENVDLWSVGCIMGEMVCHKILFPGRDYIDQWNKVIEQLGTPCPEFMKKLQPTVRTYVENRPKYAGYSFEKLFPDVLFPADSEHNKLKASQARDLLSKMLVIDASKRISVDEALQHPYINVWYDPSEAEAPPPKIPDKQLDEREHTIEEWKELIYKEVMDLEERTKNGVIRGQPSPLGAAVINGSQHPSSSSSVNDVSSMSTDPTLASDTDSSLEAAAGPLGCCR
Chain of Glycogen synthase kinase-3 beta (P49841 whole entry): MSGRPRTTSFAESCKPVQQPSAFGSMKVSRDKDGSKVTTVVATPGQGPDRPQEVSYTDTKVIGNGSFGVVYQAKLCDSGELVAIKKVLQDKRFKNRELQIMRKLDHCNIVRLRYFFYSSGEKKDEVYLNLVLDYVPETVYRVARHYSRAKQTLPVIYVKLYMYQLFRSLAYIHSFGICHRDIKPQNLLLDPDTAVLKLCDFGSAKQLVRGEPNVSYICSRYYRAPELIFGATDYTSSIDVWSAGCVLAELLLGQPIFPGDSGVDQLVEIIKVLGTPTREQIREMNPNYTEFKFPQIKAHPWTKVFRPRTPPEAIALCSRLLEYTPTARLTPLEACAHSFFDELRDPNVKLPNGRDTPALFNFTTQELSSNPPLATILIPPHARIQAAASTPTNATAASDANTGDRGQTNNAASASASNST
Chain of Casein kinase I isoform gamma-1 (Q9HCP0 whole entry, canonical isoform): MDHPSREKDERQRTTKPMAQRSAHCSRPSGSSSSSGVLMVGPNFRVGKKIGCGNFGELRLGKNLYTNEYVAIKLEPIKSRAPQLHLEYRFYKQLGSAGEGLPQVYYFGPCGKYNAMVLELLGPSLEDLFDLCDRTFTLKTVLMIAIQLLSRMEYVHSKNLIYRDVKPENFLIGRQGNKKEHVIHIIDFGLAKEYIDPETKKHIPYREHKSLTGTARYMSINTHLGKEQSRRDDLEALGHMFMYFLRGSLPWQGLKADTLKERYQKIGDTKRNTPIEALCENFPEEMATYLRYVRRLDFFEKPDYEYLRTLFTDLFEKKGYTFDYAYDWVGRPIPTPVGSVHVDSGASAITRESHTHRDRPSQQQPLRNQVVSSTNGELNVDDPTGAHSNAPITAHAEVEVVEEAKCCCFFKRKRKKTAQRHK

Regarding `CC(=O)N[C@@H]1CCC[C@H](C(=O)Nc2cc(-c3cnn4c3CCCC4)c(Cl)cn2)C1`, the clearance (usually a measure of how efficiently the substance is removed, as volume per time) in data set [1] was 30 mL/min/kg. For the same compound, the Drug metabolism result in data set [2] is recorded as “Metabolite_Detected”. The half-life (as a rule, the time needed for the level to fall by half in the phase considered) in [3] is 30 min. Also, the Vd in data set [4] worked out at 0.9 L/kg.
In the case of `CC(=O)N[C@@H]1CCC[C@H](C(=O)Nc2cc(-c3cnn4c3CC(C)(C)C4)c(F)cn2)C1`, the Ratio IC50 in the data set filed under Homo sapiens [5], in the data set listed under Homo sapiens [12] and in the data set listed under Homo sapiens [14] was 16 throughout. The Drug metabolism entry in data set [6], in data set [9], in data set [11] and in data set [15] was “Metabolite_Detected” throughout. The inhibition (as a rule, the relative decrease from the control value, in per cent) in [7] was 92%. Also, the IC50 – broadly, the midpoint of a concentration-inhibition curve – in data set [8] is 25 nM; in data set [16], over 3000 nM. For the same compound, the EC50 – broadly, the concentration at which the effect is half-maximal – in data set [10] was 29 nM. The clearance in [13] came out at 70 mL/min/kg.
`CC(=O)N[C@@H]1CCC[C@H](C(=O)Nc2cc(-c3cnn4c3CC(C)(C)C4)c(Cl)cn2)C1` [ZEMIRCICLIB]: the Drug metabolism entry in data set [17], in [19] and in [25] was “Metabolite_Detected” each time. Also, the IC50 worked out at 247 nM in [18] and 5520 nM in data set [26]. The Activity in the data set on NOMO-1 is 65%; with MV4-11 [21] it was 100%; in the data set with MV4-11 [23], “Dose-dependent effect”. Moreover, the inhibition result in [20] was “Dose-dependent effect”; in data set [27], 84%; in data set [28] it was 96%. Also, the half-life is 53.4 min in data set [22] and 39.6 min in data set [24]. For the same compound, in data set [29], the hepatocyte CLint was found to be 32 µL/min/1e6 cells.
